{"source": "ChEMBL document CHEMBL1201862", "about": "“PubChem BioAssay data set” (2004)", "key": {"Protein skinhead-1": {"molecular_target": "T1, Protein skinhead-1 (Caenorhabditis elegans, UniProt P34707)", "T1 sequence (P34707 whole entry)": "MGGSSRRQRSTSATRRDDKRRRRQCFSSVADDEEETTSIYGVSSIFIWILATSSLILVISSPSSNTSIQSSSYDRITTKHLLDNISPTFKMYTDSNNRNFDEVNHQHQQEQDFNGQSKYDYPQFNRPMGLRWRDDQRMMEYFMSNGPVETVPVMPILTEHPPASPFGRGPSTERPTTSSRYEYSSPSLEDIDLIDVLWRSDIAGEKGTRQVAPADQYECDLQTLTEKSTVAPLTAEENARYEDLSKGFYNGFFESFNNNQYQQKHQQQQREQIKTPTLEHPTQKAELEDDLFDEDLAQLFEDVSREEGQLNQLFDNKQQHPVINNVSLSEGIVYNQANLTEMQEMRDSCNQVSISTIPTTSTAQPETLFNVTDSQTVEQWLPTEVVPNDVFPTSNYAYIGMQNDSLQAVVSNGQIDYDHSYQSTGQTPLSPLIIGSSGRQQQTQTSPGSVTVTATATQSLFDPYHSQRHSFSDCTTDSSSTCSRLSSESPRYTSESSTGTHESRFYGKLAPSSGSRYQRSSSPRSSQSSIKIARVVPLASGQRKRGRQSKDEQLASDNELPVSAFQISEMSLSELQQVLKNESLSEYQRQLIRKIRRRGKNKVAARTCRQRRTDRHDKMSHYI", "type": "functional"}, "cells": {"test": "cells", "details": "HEK293"}, "[1]": {"molecular_target": "T2, Beta-2 adrenergic receptor (Homo sapiens, UniProt P07550)", "T2 sequence (P07550 whole entry)": "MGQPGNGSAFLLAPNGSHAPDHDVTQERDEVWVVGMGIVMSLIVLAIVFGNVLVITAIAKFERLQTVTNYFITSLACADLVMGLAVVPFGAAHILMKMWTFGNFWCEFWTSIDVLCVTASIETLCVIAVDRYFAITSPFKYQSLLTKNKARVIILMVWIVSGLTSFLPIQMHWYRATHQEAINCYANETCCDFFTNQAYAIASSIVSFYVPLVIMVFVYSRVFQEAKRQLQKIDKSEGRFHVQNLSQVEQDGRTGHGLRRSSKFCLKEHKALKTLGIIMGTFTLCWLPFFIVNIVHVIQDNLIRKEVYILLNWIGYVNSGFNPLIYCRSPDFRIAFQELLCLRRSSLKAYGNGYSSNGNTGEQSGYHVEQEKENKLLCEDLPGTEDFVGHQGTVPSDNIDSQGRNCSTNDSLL", "test": "beta2AR agonists driving receptor internalization, dose response, cell-based, FAP fluorogen, flow cytometry, cherry pick 1 (AID 588763)", "type": "functional"}, "[2]": {"molecular_target": "T2, Beta-2 adrenergic receptor", "test": "Dose response for HTS for Beta-2AR agonists via FAP method from Powderset2.", "type": "functional"}, "Vero": {"test_system": "Vero", "test": "Vero cell toxicity, dose response, cytotoxicity control, plate reader, cherry-pick samples (AID 687020)", "type": "functional, cell-based", "details": "Chlorocebus sabaeus"}, "Paired box protein Pax-8": {"molecular_target": "Paired box protein Pax-8 (Homo sapiens, UniProt Q06710)", "sequence (Q06710 whole entry)": "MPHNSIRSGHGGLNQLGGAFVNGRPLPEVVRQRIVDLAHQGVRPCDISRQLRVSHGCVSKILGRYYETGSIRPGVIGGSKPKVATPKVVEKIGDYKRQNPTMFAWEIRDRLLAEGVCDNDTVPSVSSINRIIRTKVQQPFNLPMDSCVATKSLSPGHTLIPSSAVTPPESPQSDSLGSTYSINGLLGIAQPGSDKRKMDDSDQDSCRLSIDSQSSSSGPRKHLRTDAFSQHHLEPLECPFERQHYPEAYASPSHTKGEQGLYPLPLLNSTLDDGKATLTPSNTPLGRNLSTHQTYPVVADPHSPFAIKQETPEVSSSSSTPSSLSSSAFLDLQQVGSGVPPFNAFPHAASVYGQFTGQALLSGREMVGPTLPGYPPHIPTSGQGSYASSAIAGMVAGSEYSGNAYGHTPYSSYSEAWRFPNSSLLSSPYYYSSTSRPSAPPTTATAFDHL", "test": "inhibitors of PAX8-driven TPO luciferase reporter, dose response, RMG-I cells, cherry-pick (AID 687027);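 also: luciferase reporter driven by Pax8 target thyroperoxidase promoter measured by SteadyGlo luminescence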", "type": "functional, cell-based"}, "[3]": {"test": "A2780 ovarian cancer cell cytotoxicity, dose response, cytotoxicity control, plate reader, dry powder samples (AID 743046)", "type": "functional, cell-based"}, "[4]": {"test": "NIH:OVCAR-3 ovarian cancer cell cytotoxicity, dose response, PAX8 inhibitor project, plate reader, dry powder samples (AID 743044)", "type": "functional, cell-based"}, "[5]": {"test": "cytotoxicity in OVCAR8 ovarian cancer cells, dose response, PAX8 project, cell-based, plate reader, dry powder samples (AID 743197)", "type": "functional", "details": "OVCAR-8"}, "Cryptococcus neoformans": {"test_system": "Cryptococcus neoformans", "test": "PubChem AID 686997", "type": "functional, organism-based"}, "HEK293": {"test_system": "HEK293", "test": "HEK293T cell cytotoxicity, dose response, cytotoxicity control, ATP luminescence, cherry-pick samples (AID 687005);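 also: cells exposed to compound for 48 hours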", "type": "functional, cell-based", "details": "Homo sapiens"}, "[6]": {"test": "HEK293 Cytotoxicity Assay Measured in Cell-Based System Using Plate Reader - 7071-01_Inhibitor_Dose_CherryPick_Activity_Set2.", "type": "functional"}, "[7]": {"molecular_target": "Metabotropic glutamate receptor 3 (Rattus norvegicus, UniProt P31422)", "sequence (P31422 whole entry)": "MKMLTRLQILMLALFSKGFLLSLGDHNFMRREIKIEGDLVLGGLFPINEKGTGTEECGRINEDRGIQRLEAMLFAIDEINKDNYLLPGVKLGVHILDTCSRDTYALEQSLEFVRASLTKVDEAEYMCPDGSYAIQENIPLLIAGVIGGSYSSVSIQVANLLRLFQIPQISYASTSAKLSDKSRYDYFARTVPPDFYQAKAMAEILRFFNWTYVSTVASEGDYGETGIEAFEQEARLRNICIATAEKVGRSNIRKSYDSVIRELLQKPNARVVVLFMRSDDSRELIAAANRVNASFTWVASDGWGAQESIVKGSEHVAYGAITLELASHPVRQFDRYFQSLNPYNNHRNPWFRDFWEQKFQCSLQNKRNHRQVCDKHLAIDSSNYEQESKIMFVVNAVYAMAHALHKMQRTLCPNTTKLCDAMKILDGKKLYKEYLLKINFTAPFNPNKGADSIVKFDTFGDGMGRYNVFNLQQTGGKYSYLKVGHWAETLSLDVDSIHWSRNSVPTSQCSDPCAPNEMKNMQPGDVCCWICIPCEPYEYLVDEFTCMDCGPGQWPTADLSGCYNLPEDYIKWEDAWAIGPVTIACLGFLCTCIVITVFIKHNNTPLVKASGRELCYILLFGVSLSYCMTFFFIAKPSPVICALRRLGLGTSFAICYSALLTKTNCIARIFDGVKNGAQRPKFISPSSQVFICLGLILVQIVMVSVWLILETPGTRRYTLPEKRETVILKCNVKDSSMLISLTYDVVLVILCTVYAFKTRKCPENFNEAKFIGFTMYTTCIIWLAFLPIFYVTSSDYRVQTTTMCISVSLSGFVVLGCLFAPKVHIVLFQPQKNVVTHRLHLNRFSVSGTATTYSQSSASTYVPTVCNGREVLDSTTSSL", "test": "mGlu3 NAM potency via calcium readout, dose response, mGlu3 NAM project, TREx293 cells, Galpha15, calcium flux (AID 651840)", "type": "functional"}, "[8]": {"test": "A Cell-Based Confirmatory Screen for Compounds that Inhibit VEEV, TC-83 (3).", "type": "functional"}, "[9]": {"test": "Late-stage results from the probe development effort to identify antagonists of arginine vasopressin receptor 1a (AVPR1a): fluorescence-based cell-based dose response AVPR1a inhibition assay.", "type": "functional"}, "Vasopressin V1b receptor": {"molecular_target": "Vasopressin V1b receptor (Homo sapiens, UniProt P47901)", "sequence (P47901 whole entry)": "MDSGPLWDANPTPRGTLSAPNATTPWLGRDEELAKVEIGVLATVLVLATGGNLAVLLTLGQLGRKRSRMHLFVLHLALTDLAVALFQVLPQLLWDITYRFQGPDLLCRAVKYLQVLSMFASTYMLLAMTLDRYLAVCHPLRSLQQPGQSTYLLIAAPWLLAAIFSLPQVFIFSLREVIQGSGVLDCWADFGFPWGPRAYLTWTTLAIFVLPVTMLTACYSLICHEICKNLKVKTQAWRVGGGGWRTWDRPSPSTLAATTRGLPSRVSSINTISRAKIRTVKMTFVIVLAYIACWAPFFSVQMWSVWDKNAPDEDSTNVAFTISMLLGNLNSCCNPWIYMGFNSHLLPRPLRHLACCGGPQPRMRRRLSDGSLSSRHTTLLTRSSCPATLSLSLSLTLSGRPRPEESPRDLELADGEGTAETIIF", "test": "Late-stage results from the probe development effort to identify antagonists of arginine vasopressin receptor 1a (AVPR1a): fluorescence-based cell-based dose response AVPR1b inhibition counterscreen assay.", "type": "functional"}, "Vasopressin V2 receptor": {"molecular_target": "Vasopressin V2 receptor (Homo sapiens, UniProt P30518)", "sequence (P30518 whole entry)": "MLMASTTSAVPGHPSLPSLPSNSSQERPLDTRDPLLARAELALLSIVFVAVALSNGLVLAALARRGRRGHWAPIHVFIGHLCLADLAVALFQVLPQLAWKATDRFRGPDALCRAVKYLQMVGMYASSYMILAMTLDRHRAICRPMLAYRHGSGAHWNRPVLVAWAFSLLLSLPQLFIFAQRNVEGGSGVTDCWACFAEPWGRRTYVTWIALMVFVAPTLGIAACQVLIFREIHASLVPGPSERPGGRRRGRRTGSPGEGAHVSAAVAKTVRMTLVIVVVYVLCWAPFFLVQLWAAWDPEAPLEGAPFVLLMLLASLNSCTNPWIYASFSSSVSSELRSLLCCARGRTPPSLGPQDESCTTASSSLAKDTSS", "test": "Late-stage results from the probe development effort to identify antagonists of arginine vasopressin receptor 1a (AVPR1a): fluorescence-based cell-based dose response AVPR2 inhibition counterscreen assay.", "type": "functional"}, "[10]": {"test": "Late-stage results from the probe development effort to identify antagonists of arginine vasopressin receptor 1a (AVPR1a): fluorescence-based cell-based dose response OXTR inhibition counterscreen assay.", "type": "functional"}, "[11]": {"test": "HepG2 cell cytotoxicity, dose response, cytotoxicity control, cherry-picks, set 5 (AID 1053118)", "type": "functional, cell-based"}, "[12]": {"test": "HEK293 cell cytotoxicity, dose response, cytotoxicity control, cherry-picks, set 5 (AID 1053117)", "type": "functional, cell-based"}, "[13]": {"test": "inhibitors of fibronectin matrix deposition, dose response, AH1F cells, Alexa488-FN fluorescence, cherry-picks (AID 1035475)", "type": "functional, cell-based"}, "[14]": {"molecular_target": "Potassium channel subfamily K member 9 (Homo sapiens, UniProt Q9NPC2)", "sequence (Q9NPC2 whole entry)": "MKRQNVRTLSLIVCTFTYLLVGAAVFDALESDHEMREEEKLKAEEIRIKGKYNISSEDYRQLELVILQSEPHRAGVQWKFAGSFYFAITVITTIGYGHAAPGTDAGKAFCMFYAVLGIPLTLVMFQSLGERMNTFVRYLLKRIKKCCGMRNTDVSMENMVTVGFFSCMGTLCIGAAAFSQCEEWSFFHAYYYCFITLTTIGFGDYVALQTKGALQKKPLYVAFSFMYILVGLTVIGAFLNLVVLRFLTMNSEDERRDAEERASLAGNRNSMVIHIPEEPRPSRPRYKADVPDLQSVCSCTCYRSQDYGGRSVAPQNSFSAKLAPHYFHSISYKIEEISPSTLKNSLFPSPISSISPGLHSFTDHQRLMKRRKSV", "test": "TASK3 (KCNK9) channel inhibitors, thallium flux, SAR follow-up, selectivity assay for TASK1 inhibitor project, cell-based, FluxOR thallium flux, concentration-response (AID 652211)", "type": "functional"}}, "note": "Active and inactive are the calls of the source.", "data": [{"smiles": "Cc1cc2cc(CNC(=O)c3ccco3)ccc2n1C", "values": [{"measurement": "IC50", "setting": "Protein skinhead-1", "result": "73.3 µM (inactive)"}, {"measurement": "AC50", "setting": "cells", "result": "> 52 µM (inactive)"}]}, {"smiles": "CN(CC(=O)N1CCN(c2ccccn2)CC1)S(=O)(=O)c1ccc(Cl)cc1", "values": [{"measurement": "EC50", "setting": "[1]", "result": "39.6 nM (active)"}, {"measurement": "EC50", "setting": "[2]", "result": "357 nM (active)"}]}, {"smiles": "O=C(Nc1ccc2c(c1)OCO2)c1cc(C2CCCCN2C(=O)OCCF)on1", "note": "(configuration not stated)", "values": [{"measurement": "AC50", "setting": "Vero", "result": "31.8 µM (active)"}]}, {"smiles": "C[C@@H]1CCCCO[C@H](CN(C)C(=O)c2ccccc2)[C@H](C)CN([C@@H](C)CO)C(=O)c2cc(NC(=O)Nc3ccc(C(F)(F)F)cc3)ccc2O1", "values": [{"measurement": "AC50", "setting": "Paired box protein Pax-8", "result": "6.57 µM (active)"}, {"measurement": "AC50", "setting": "[3]", "result": "64.1 µM (active)"}, {"measurement": "AC50", "setting": "[4]", "result": "19.9 µM (active)"}, {"measurement": "AC50", "setting": "[5]", "result": "34.4 µM (active)"}]}, {"smiles": "COC(=O)C1=C(C)N(Cc2ccc(Br)cc2)C(=S)NC1c1ccccc1", "note": "(configuration not stated)", "values": [{"measurement": "AC50", "setting": "Cryptococcus neoformans", "result": "18.8 µM (active)"}, {"measurement": "AC50", "setting": "HEK293", "result": "19.8 µM (active)"}, {"measurement": "AC50", "setting": "[6]", "result": "19.8 µM (active)"}]}, {"smiles": "COc1ccc(C#Cc2ccc(C(=O)N3CC4CCC(=O)C4C3)cc2)cc1", "note": "(configuration not stated)", "values": [{"measurement": "IC50", "setting": "[7]", "result": 2050, "unit": "nM"}]}, {"smiles": "CN(C(=O)Cc1cccs1)c1nc2c(s1)CCCC2", "values": [{"measurement": "IC50", "setting": "[8]", "result": "2.92 µM (active)"}]}, {"smiles": "N#Cc1ccc(N2CCC(C(=O)N(CC3CC3)c3ccc(Cl)cc3)CC2)nc1", "values": [{"measurement": "IC50", "setting": "[9]", "result": "800 nM (active)"}, {"measurement": "IC50", "setting": "Vasopressin V1b receptor", "result": "25.7 µM (inactive)"}, {"measurement": "IC50", "setting": "Vasopressin V2 receptor", "result": "30.2 µM (inactive)"}, {"measurement": "IC50", "setting": "[10]", "result": "20.1 µM (inactive)"}]}, {"smiles": "CO[C@H]1CN(C)C(=O)c2ccc(NC(=O)Nc3cc(Cl)cc(Cl)c3)cc2OC[C@H](C)NC[C@@H]1C", "values": [{"measurement": "AC50", "setting": "[11]", "result": "30.9 µM (active)"}, {"measurement": "AC50", "setting": "[12]", "result": "41.1 µM (active)"}]}, {"smiles": "Cc1ccc(S(=O)(=O)N2CC[C@@H]3[C@H]2c2cc(-c4cccc(C(=O)N(C)C)c4)ccc2N[C@@H]3CO)cc1", "values": [{"measurement": "AC50", "setting": "[13]", "result": "4.45 µM (active)"}]}, {"smiles": "COc1ccccc1C(=O)Nc1cccc(NC(=O)c2ccccc2)c1", "values": [{"measurement": "IC50", "setting": "[14]", "result": "1.74 µM (active)"}]}]}
